Here are results for 14 compounds from patent publication US20240116985A1, “STAPLED PEPTIDES AND METHODS THEREOF” (priority 2020, published 2024).

One experiment has as its target T1, full-length beta-Catenin (Uniprot ID P35222) (Homo sapiens, UniProt P35222).
T1 construct: 10 nM full-length beta-Catenin (Uniprot ID P35222)
T1 sequence (P35222 1-781): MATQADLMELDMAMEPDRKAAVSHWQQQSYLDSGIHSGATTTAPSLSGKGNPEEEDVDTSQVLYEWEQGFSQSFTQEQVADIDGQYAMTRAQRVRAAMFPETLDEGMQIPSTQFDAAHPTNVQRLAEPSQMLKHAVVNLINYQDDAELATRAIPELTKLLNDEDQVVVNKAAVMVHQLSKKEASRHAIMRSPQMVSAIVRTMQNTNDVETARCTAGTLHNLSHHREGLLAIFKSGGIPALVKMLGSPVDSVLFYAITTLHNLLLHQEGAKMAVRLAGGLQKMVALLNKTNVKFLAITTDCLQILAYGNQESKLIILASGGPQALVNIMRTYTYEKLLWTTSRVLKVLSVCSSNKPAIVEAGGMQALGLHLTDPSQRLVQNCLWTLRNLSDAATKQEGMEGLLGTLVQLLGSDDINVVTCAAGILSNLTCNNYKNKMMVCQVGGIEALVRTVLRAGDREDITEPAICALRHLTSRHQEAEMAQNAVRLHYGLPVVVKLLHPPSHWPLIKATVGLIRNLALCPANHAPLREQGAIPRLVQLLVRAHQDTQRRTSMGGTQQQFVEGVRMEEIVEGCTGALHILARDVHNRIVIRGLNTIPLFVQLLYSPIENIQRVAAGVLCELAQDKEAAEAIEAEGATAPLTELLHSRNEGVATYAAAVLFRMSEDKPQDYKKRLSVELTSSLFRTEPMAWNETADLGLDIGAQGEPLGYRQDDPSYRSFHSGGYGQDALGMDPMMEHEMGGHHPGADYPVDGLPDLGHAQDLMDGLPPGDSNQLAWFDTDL
Nature of the experiment: Fluorescence polarization IC50 (beta-catenin / 5FAM-TCF4 10-53 competition). The experiment is classed as binding. The following applies: beta-Catenin FP IC50 (nM), fluorescence polarization.
Consider `CC(=O)N1CCC[C@]12CC=CCCCC1(CCCC=CCCCOC(=O)N3CC[C@@](C(=O)N[C@@H](Cc4ccsc4)C(=O)N[C@@H](Cc4csc5ccccc45)C(=O)N[C@@H](CC(N)=O)C(=O)N[C@@H](C)C(=O)N[C@@H](C)C(=O)N[C@@H](C)C(=O)N[C@@H](C)C(=O)N[C@@H](C)C(=O)N[C@@H](C)C(=O)N[C@@H](C)C(=O)N[C@@H](C)C(=O)N[C@@H](C)C(N)=O)(C3)NC(=O)[C@H](CC(C)C)NC(=O)[C@H](Cc3ccccc3)NC(=O)[C@H](C)NC(=O)[C@H](C)NC(=O)[C@H](Cc3cccc(C(=O)O)c3)NC(=O)[C@H](CC(=O)O)NC1=O)NC(=O)[C@H](CC(C)(C)C)NC(=O)[C@H](CC(=O)O)NC2=O` (some centres unmarked) [I-2270], for which the IC50 is 40 nM.
`C[C@@H]1NC(=O)[C@H](C)NC(=O)[C@H](CC(=O)O)NC(=O)[C@H](CC(=O)O)NC(=O)C2(CCCC=CCCCOC(=O)N3CC[C@@](C(=O)N[C@@H](Cc4ccsc4)C(=O)N[C@@H](Cc4csc5ccccc45)C(=O)N[C@@H](Cc4c[nH]cn4)C(N)=O)(C3)NC(=O)[C@H](CCC(N)=O)NC(=O)[C@H](Cc3ccccc3)NC1=O)CCCC=CC[C@]1(CCCN1C(=O)CBr)C(=O)N[C@@H](CC(=O)O)C(=O)N[C@@H](CC(C)(C)C)C(=O)N2` (stereo partly drawn) [I-2285, BrAc-PL3-Asp-Npg-B5-Asp-Asp-Ala-Ala-Phe-Gln-PyrS2-3Thi-BztA-His-NH2] came in with an IC50 of 94 nM.
On the same count and under the same terms, under `CC(C)C[C@@H]1NC(=O)[C@H](Cc2ccccc2)NC(=O)[C@H](C)NC(=O)[C@H](C)NC(=O)[C@H](Cc2cccc(C(=O)O)c2)NC(=O)[C@H](CC(=O)O)NC(=O)C2(CCCC=CCCCOC(=O)N3CC[C@@](C(=O)N[C@@H](Cc4ccccc4Cl)C(=O)N[C@@H](Cc4csc5ccccc45)C(=O)N[C@@H](C)C(N)=O)(C3)NC1=O)CCCC=CC[C@]1(CCCN1C(=O)CBr)C(=O)N[C@@H](CC(=O)O)C(=O)N[C@@H](CC(C)(C)C)C(=O)N2` (stereo partly drawn) [I-2286, BrAc-PL3-Asp-Npg-B5-Asp-3COOHF-Ala-Ala-Phe-Leu-PyrS2-2C1F-BztA-Ala-NH2] stands 88 nM.
`C[C@@H]1NC(=O)[C@H](C)NC(=O)[C@H](CC(=O)O)NC(=O)[C@H](CC(=O)O)NC(=O)C2(CCCC=CCCCOC(=O)N3CC[C@@](C(=O)N[C@@H](Cc4ccsc4)C(=O)N[C@@H](Cc4csc5ccccc45)C(=O)N[C@@H](Cc4c[nH]cn4)C(N)=O)(C3)NC(=O)[C@H](CCC(N)=O)NC(=O)[C@H](Cc3ccccc3)NC1=O)CCCC=CC[C@]1(CCCN1C(=O)Oc1ccccc1)C(=O)N[C@@H](CC(=O)O)C(=O)N[C@@H](CC(C)(C)C)C(=O)N2` (stereo partly drawn) [I-2326, CO2Ph-PL3-Asp-Npg-B5-Asp-Asp-Ala-Ala-Phe-Gln-PyrS2-3Thi-BztA-His-NH2] registered an IC50 of 185 nM.
`CC(C)C[C@@H]1NC(=O)[C@H](Cc2ccccc2)NC(=O)[C@H](C)NC(=O)[C@H](C)NC(=O)[C@H](Cc2cccc(C(=O)O)c2)NC(=O)[C@H](CC(=O)O)NC(=O)C2(CCCC=CCCCOC(=O)N3CC[C@@](C(=O)N[C@@H](Cc4ccccc4Cl)C(=O)N[C@@H](Cc4csc5ccccc45)C(=O)N[C@@H](C)C(N)=O)(C3)NC1=O)CCCC=CC[C@]1(CCCN1C(=O)Oc1ccccc1)C(=O)N[C@@H](CC(=O)O)C(=O)N[C@@H](CC(C)(C)C)C(=O)N2` (stereo partly drawn) [I-2327, CO2Ph-PL3-Asp-Npg-B5-Asp-3COOHF-Ala-Ala-Phe-Leu-PyrS2-2C1F-BztA-Ala-NH2] gave an IC50 of 376 nM.

The same experiment, now with this note: fluorescence polarization; read-out: beta-Catenin FP IC50.
Regarding `CC(=O)N1CCC[C@]12CC=CCCCC1(CCCC=CCCCOC(=O)N3CC[C@@](C(=O)N[C@@H](Cc4cccc(-c5ccccc5)c4)C(=O)N[C@@H](CC4CCC4)C(=O)N[C@@H](CCC(N)=O)C(N)=O)(C3)NC(=O)[C@H](CC(C)C)NC(=O)[C@H](Cc3ccccc3)NC(=O)[C@H](C)NC(=O)[C@H](C)NC(=O)[C@H](Cc3cccc(C(=O)O)c3)NC(=O)[C@H](CC(=O)O)NC1=O)NC(=O)[C@H](CC(C)(C)C)NC(=O)[C@H](CC(=O)O)NC2=O` (stereo partly drawn) [I-2255, Ac-PL3-Asp-Npg-B5-Asp-3COOHF-Ala-Ala-Phe-Leu-PyrS2-[Ph]3SF-Cba-Gln-NH2], the IC50 was 7650 nM.
Same read-out and setting: under `CC(=O)N1CCC[C@]12CC=CCCCC1(CCCC=CCCCOC(=O)N3CC[C@@](C(=O)N[C@@H](Cc4cccc(-c5ccccc5)c4)C(=O)N[C@@H](Cc4ccccc4C(F)(F)F)C(=O)N[C@@H](CCC(N)=O)C(N)=O)(C3)NC(=O)[C@H](CC(C)C)NC(=O)[C@H](Cc3ccccc3)NC(=O)[C@H](C)NC(=O)[C@H](C)NC(=O)[C@H](Cc3cccc(C(=O)O)c3)NC(=O)[C@H](CC(=O)O)NC1=O)NC(=O)[C@H](CC(C)(C)C)NC(=O)[C@H](CC(=O)O)NC2=O` (stereo partly drawn) [I-2256, Ac-PL3-Asp-Npg-B5-Asp-3COOHF-Ala-Ala-Phe-Leu-PyrS2-[Ph]3SF-2F3MeF-Gln-NH2] stands 8410 nM; under `CC(=O)N1CCC[C@]12CC=CCCCC1(CCCC=CCCCOC(=O)N3CC[C@@](C(=O)N[C@@H](Cc4ccsc4)C(=O)N[C@@H](Cc4csc5ccccc45)C(=O)N[C@@H](C)C(N)=O)(C3)NC(=O)[C@H](CC(C)C)NC(=O)[C@H](Cc3ccccc3)NC(=O)[C@H](C)NC(=O)[C@H](C)NC(=O)[C@H](Cc3cccc(C(=O)O)c3)NC(=O)[C@H](CC(=O)O)NC1=O)NC(=O)[C@H](CC(C)(C)C)NC(=O)[C@H]([C@@H](O)C(=O)O)NC2=O` (stereo partly drawn) [I-2258, Ac-PL3-RbOHAsp-Npg-B5-Asp-3COOHF-Ala-Ala-Phe-Leu-PyrS2-3Thi-BztA-Ala-NH2], 272 nM.
Regarding `CC(=O)N1CC2CC1C(=O)N[C@@H](CC(=O)O)C(=O)N[C@@H](CC(C)(C)C)C(=O)NC1(CCCC=CCCCOC(=O)N3CC[C@@](C(=O)N[C@@H](Cc4ccsc4)C(=O)N[C@@H](Cc4csc5ccccc45)C(=O)N[C@@H](CCC(N)=O)C(N)=O)(C3)NC(=O)[C@H](CC(C)C)NC(=O)[C@H](Cc3ccccc3)NC(=O)[C@H](C)NC(=O)[C@H](C)NC(=O)[C@H](CN(CC(=O)O)CC(F)(F)F)NC(=O)[C@H](CC(=O)O)NC1=O)CCCC=CCCC(=O)O2` (stereo partly drawn) [I-2264, Ac-HypEs5-Asp-Npg-B5-Asp-TfeGA-Ala-Ala-Phe-Leu-PyrS2-3Thi-BztA-Gln-NH2], the IC50 was 45 nM.
The same measure, in the same setting: under `CC(C)C[C@@H]1NC(=O)[C@H](Cc2ccccc2)NC(=O)[C@H](C)NC(=O)[C@H](C)NC(=O)[C@H](CN(CC(=O)O)CC(F)(F)F)NC(=O)[C@H](CC(=O)O)NC(=O)C2(CCCC=CCCCOC(=O)N3CC[C@@](C(=O)N[C@@H](Cc4ccsc4)C(=O)N[C@@H](Cc4csc5ccccc45)C(=O)N[C@@H](CCC(N)=O)C(N)=O)(C3)NC1=O)CCCC=CCS(=O)(=O)N1CCC[C@@H]1C(=O)N[C@@H](CC(=O)O)C(=O)N[C@@H](CC(C)(C)C)C(=O)N2` (stereo partly drawn) [I-2266, ProSAm3-Asp-Npg-B5-Asp-TfeGA-Ala-Ala-Phe-Leu-PyrS2-3Thi-BztA-Gln-NH2] stands 266 nM; under `CC(C)C[C@@H]1NC(=O)[C@H](Cc2ccccc2)NC(=O)[C@H](C)NC(=O)[C@H](C)NC(=O)[C@H](CN(CC(=O)O)CC(F)(F)F)NC(=O)[C@H](CC(=O)O)NC(=O)C2(CCCCCCCCOC(=O)N3CC[C@@](C(=O)N[C@@H](Cc4ccsc4)C(=O)N[C@@H](Cc4csc5ccccc45)C(=O)N[C@@H](CCC(N)=O)C(N)=O)(C3)NC1=O)CCCCCCS(=O)(=O)N1CCC[C@@H]1C(=O)N[C@@H](CC(=O)O)C(=O)N[C@@H](CC(C)(C)C)C(=O)N2` (stereo partly drawn) [I-2267, ProSAm3-Asp-Npg-B5-Asp-TfeGA-Ala-Ala-Phe-Leu-PyrS2-3Thi-BztA-Gln-NH2], 499 nM; under `CCCCOC(=O)N1CCC[C@]12CC=CCCCC1(CCCC=CCCCOC(=O)N3CC[C@@](C(=O)N[C@@H](Cc4ccccc4Cl)C(=O)N[C@@H](Cc4csc5ccccc45)C(=O)N[C@@H](C)C(N)=O)(C3)NC(=O)[C@H](CC(C)C)NC(=O)[C@H](Cc3ccccc3)NC(=O)[C@H](C)NC(=O)[C@H](C)NC(=O)[C@H](Cc3cccc(C(=O)O)c3)NC(=O)[C@H](CC(=O)O)NC1=O)NC(=O)[C@H](CC(C)(C)C)NC(=O)[C@H](CC(=O)O)NC2=O` (stereo partly drawn) [I-2304, CO2Bu-PL3-Asp-Npg-B5-Asp-3COOHF-Ala-Ala-Phe-Leu-PyrS2-2C1F-BztA-Ala-NH2], 511 nM.
On the same count and under the same terms, under `COC(=O)N1CCC[C@]12CC=CCCCC1(CCCC=CCCCOC(=O)N3CC[C@@](C(=O)N[C@@H](Cc4ccccc4Cl)C(=O)N[C@@H](Cc4csc5ccccc45)C(=O)N[C@@H](C)C(N)=O)(C3)NC(=O)[C@H](CC(C)C)NC(=O)[C@H](Cc3ccccc3)NC(=O)[C@H](C)NC(=O)[C@H](C)NC(=O)[C@H](Cc3cccc(C(=O)O)c3)NC(=O)[C@H](CC(=O)O)NC1=O)NC(=O)[C@H](CC(C)(C)C)NC(=O)[C@H](CC(=O)O)NC2=O` (stereo partly drawn) [I-2324, CO2Me-PL3-Asp-Npg-B5-Asp-3COOHF-Ala-Ala-Phe-Leu-PyrS2-2C1F-BztA-Ala-NH2] stands 83 nM.
On to `CC(C)C[C@@H]1NC(=O)[C@H](Cc2ccccc2)NC(=O)[C@H](C)NC(=O)[C@H](C)NC(=O)[C@H](Cc2cccc(C(=O)O)c2)NC(=O)[C@H](CC(=O)O)NC(=O)C2(CCCC=CCCCOC(=O)N3CC[C@@](C(=O)N[C@@H](Cc4ccccc4Cl)C(=O)N[C@@H](Cc4csc5ccccc45)C(=O)N[C@@H](C)C(N)=O)(C3)NC1=O)CCCC=CC[C@]1(CCCN1C(=O)OC1CCCCC1)C(=O)N[C@@H](CC(=O)O)C(=O)N[C@@H](CC(C)(C)C)C(=O)N2` (stereo partly drawn) [I-2325, CO2Hex-PL3-Asp-Npg-B5-Asp-3COOHF-Ala-Ala-Phe-Leu-PyrS2-2C1F-BztA-Ala-NH2], for which the IC50 worked out at 1350 nM.
